Positions of bridges follow the written chain, without caps; N, C: chain ends. Non-standard residues stand in square brackets, D forms with d. Residues, ends and D or L forms follow the SMILES beside them. *: point of attachment. X1 = CC[C@H](C)CCCCC(=O)*; Dab = NCC[C@H](N)C(=O)O
Tests used:
E. coli MRSN 388634 [1] = assay: Mouse septicemia model, acute; assay type: in vivo, BALB/c mice
Description: FIG 3 PPMOs rescue colistin activity in a mouse model of acute septicemia. Female BALB/c mice (7 to 8 weeks old) were infected via intraperitoneal injection with 8e4 CFU of MRSN 388634. At 2 and 6 h postinfection, 0.25 mg/kg colistin sulfate, 100 μg PPMO (~5 mg/kg), or the combination was administered via the i.p. route. Mice were euthanized at 24 h, and organ burden was determined. Numbers of CFU per gram of tissue of the liver (A) and spleen (B) are shown. (C) Morbidity was assessed immediately prior to euthanasia and scored as a maxima of 6 (moribund) and a nadir of 0. Mice that succumbed prior to euthanasia are depicted with the maxima score of 6. The data represent the means and standard errors of the means (SEM) of results from two replicate experiments (n = 4) (n = 8 per group total). n.s., not significant; *, P < 0.05; **, P < 0.01; ***, P < 0.001; ****, P < 0.0001 by Student’s t test, with the Mann-Whitney test used for morbidity.
Animal experiments were approved by the […] at UT Southwestern Medical Center (protocol number 2016-101626). The mouse model of septicemia with PPMO rescue of antibiotic activity was described previously ([10]).
(§1) Briefly, 7- to 8-week-old female BALB/c mice (Jackson Laboratory, Sacramento, CA, USA) were infected intraperitoneally (i.p.) with 8 × 10^4 CFU of E. coli (MRSN 388634) in DPBS with 5% mucin (M1778; Sigma-Aldrich). At 2 and 6 h postinfection, 0.25 mg/kg colistin sulfate, 100 µg PPMO, or the combination was administered i.p. in 100 µl DPBS. Morbidity was assessed at 24 h, immediately prior to euthanasia. Mice were scored from 0 to 6 as follows: 0 for the absence or 1 for the presence of a ruffled coat; 0 for a normal posture, 1 for a hunched posture, and 2 for a prostrate posture; and 0 for nondisturbed movement, 1 for slow movement, 2 for movement after prodding, and 3 for no movement. Mice that succumbed to infection prior to euthanasia were scored as the maxima, 6 (moribund). Spleen and liver were harvested and homogenized in 1 ml DPBS (Omni TH; Omni International, Kennesaw, GA), serially diluted, and plated on blood agar.

E. coli MRSN 388634 [2] = assay: Mouse septicemia model, survival; assay type: in vivo, BALB/c mice
Description: FIG 4 PPMOs combined with colistin protect mice from a lethal dose of mcr-1-positive E. coli. Female BALB/c mice (7 to 8 weeks old) were infected via intraperitoneal injection with 1e6 CFU of MRSN 388634. At 2 and 6 h postinfection 0.5 mg/kg colistin sulfate, 100 μg PPMO (~5 mg/kg), or the combination was administered via the i.p. route. Mice were monitored for morbidity, with an assessment scored at a maxima of 6 (moribund; dotted line [b]) and a nadir of 0. The data represent the means and SEM from two replicate experiments (n = 4) (n = 8 per group total). (A to C) Survival curve (A), morbidity scoring (B), and weight loss measurement (C) over the course of 5 days. ****, P < 0.0001 by the Mantel-Cox log-rank test.
as §1
Mice were infected and treated as described above except that the inoculum was increased to 1 × 10^6 CFU and the colistin dose was increased to 0.5 mg/kg. Mice were weighed, and morbidity was assessed every 6 h for the first 36 h and then every 12 h out to 120 h (5 days). Mice that reached the moribund state were euthanized.

Row | Compound | burden in the liver and morbidity at 24 h, colistin alone (E. coli MRSN 388634 [1]; BALB/c, 8 × 10^4 CFU i.p., colistin sulfate 0.25 mg/kg i.p. at 2 and 6 h, n = 8) | effect on burden or morbidity at 24 h, PPMO alone (E. coli MRSN 388634 [1]; BALB/c, 8 × 10^4 CFU i.p., PPMO 100 μg (~5 mg/kg) i.p. at 2 and 6 h postinfection, n = 8) | decrease in the number of CFU, combination with colistin (E. coli MRSN 388634 [1]; PPMO ~5 mg/kg + colistin sulfate 0.25 mg/kg i.p. at 2 and 6 h, 24 h) | liver burden and morbidity, combination with colistin, compared to Ctrl PPMO and colistin (E. coli MRSN 388634 [1]; PPMO ~5 mg/kg + colistin sulfate 0.25 mg/kg i.p. at 2 and 6 h, 24 h, n = 8) | numbers of CFU in liver and spleen at 24 h, combination with colistin, compared to DPBS control (E. coli MRSN 388634 [1]; PPMO ~5 mg/kg + colistin sulfate 0.25 mg/kg i.p. at 2 and 6 h, n = 8) | survival to the 5-day endpoint, combination with colistin (E. coli MRSN 388634 [2]; BALB/c, 1 × 10^6 CFU i.p., PPMO 100 μg (~5 mg/kg) + colistin sulfate 0.5 mg/kg i.p. at 2 and 6 h, n = 6/8) [%] | body weight course, combination with colistin (E. coli MRSN 388634 [2]; PPMO ~5 mg/kg + colistin sulfate 0.5 mg/kg, over 5 days) | morbidity course, combination with colistin (E. coli MRSN 388634 [2]; PPMO ~5 mg/kg + colistin sulfate 0.5 mg/kg, score 0 to 6)
1 | CC[C@H](C)CCCCC(=O)N[C@@H](CCN)C(=O)N[C@H](C(=O)N[C@@H](CCN)C(=O)N[C@H]1CCNC(=O)[C@H]([C@@H](C)O)NC(=O)[C@H](CCN)NC(=O)[C@H](CCN)NC(=O)[C@H](CC(C)C)NC(=O)[C@@H](CC(C)C)NC(=O)[C@H](CCN)NC1=O)[C@@H](C)O [Colistin, colistin, reference compound] (X1-[Dab]T[Dab][Dab][Dab][dL]L[Dab][Dab]T; lactam 4-C (inferred); N-terminus assumed) | significant reduction |  |  |  |  |  |  | 
2 | TCAAAGAGTAC [Mcr1-0545, (RXR)4XB 3′-end-conjugated PPMO targeted to mcr-1 mRNA, positions −8 to +3; theone tested in mice] |  | Neither the MCR-1 nor the Ctrl PPMO alone had an effect | ~ 1 log | significantly less | significant reduction | 75 | continued to lose weight over the course of the experiment | increased initially, but the mice began to recover by 24 h

Reference: PMC5676038, “MCR-1 Inhibition with Peptide-Conjugated Phosphorodiamidate Morpholino Oligomers Restores Sensitivity to Polymyxin in Escherichia coli” (mBio, 2017)
